In patent publication US12679835B2, “Benzothiazinone derivative substituted with trifluoromethyl at 6-position, and preparation method therefor and use thereof” (SOOCHOW UNIVERSITY, priority 2021, dated 2026):
In brackets after ≈: the same amount, converted by molar mass.

Experiments:
[1] = test system: Mycobacterium tuberculosis (H37 Rv, standard tuberculosis strain); experiment: Anti-Mycobacterium tuberculosis activity, microwell Alamar Blue fluorometric method (MIC); type: cell-based; conditions: Mycobacterium tuberculosis H37Rv, 37° C., 8 days + 2 days, read-out: MIC (minimal inhibitory concentration)
in vitro = conditions: human, microsomes, pH 7.4
physchem = conditions: pH 7.4, aqueous buffer, kinetic from dmso stock
Tuberculosis = conditions: background statement, existing clinical first-line drug; cited from earlier work

Structure (SMILES) | MIC [1] [µg/mL] | half-life at 1 μM (in vitro) [min] | solubility at 4 h (physchem) [µg/mL] | MIC (Tuberculosis) [µM]
CN(Cc1nnc(-c2ccccc2)o1)c1nc(=O)c2cc(C(F)(F)F)cc([N+](=O)[O-])c2s1 [Example 1, 2-(methyl ((5-phenyl-1,3,4-oxadiazol-2-yl)methyl)amino)-8-nitro-6-(trifluoromethyl)-4H-benzo [e] [1,3] Thiazin-4-ketone] | 0.003 | 68.2 | 0.15 (≈ 0.324 µM) | –
NNC(=O)c1ccncc1 [isoniazid INH, isoniazid] | 0.028 | – | – | 0.5 (≈ 0.0686 µg/mL)
CN(Cc1coc(-c2ccccc2)n1)c1nc(=O)c2cc(C(F)(F)F)cc([N+](=O)[O-])c2s1 [Example 5, 2-(methyl((2-phenyloxazole-4-yl)methyl)amino)-8-nitro-6-(trifluoromethyl)-4H-benzo [e] [1,3] Thiazin-4-ketone] | 0.003 | 33.6 | 0.11 (≈ 0.238 µM) | –
CN(Cc1cn(-c2ccccc2)nn1)c1nc(=O)c2cc(C(F)(F)F)cc([N+](=O)[O-])c2s1 [Example 2, 2-(1-phenyl ((1-1H-1,2,3-triazole-4-yl)methyl) (methyl)amino)-8-nitro-6-(trifluoromethyl)-4H-benzo [e] [1,3] Thiazin-4-ketone] | 0.004 | 100 | 0.13 (≈ 0.281 µM) | –
CN(Cc1nnc(-c2ccccc2)o1)c1nc(=O)c2cc(S(C)(=O)=O)cc([N+](=O)[O-])c2s1 [Control 1] | 0.014 | 45.9 | – | –
CN(Cc1cn(-c2ccc(F)cc2)nn1)c1nc(=O)c2cc(C(F)(F)F)cc([N+](=O)[O-])c2s1 [Example 3] | 0.004 | 116 | 0.12 (≈ 0.25 µM) | –
CN(Cc1coc(-c2ccccc2)n1)c1nc(=O)c2cc(S(C)(=O)=O)cc([N+](=O)[O-])c2s1 [Control 5] | 0.015 | 21 | – | –
CN(Cc1cn(-c2ccc(F)cc2)nn1)c1nc(=O)c2cc(S(C)(=O)=O)cc([N+](=O)[O-])c2s1 [Control 3] | 0.015 | 27.6 | – | –
O=c1nc(N2CCN(CC3CCCCC3)CC2)sc2c([N+](=O)[O-])cc(C(F)(F)F)cc12 [PBTZ169] | 0.00183 | 38 | < 0.01 | –
CN(Cc1nnc(-c2ccc(F)cc2)s1)c1nc(=O)c2cc(S(C)(=O)=O)cc([N+](=O)[O-])c2s1 [Control 4] | 0.024 | 13.2 | – | –
CN(Cc1cn(-c2ccccc2)nn1)c1nc(=O)c2cc(S(C)(=O)=O)cc([N+](=O)[O-])c2s1 [Control 2] | 0.022 | 53.7 | – | –
CN(Cc1nnc(-c2ccc(F)cc2)s1)c1nc(=O)c2cc(C(F)(F)F)cc([N+](=O)[O-])c2s1 [Example 4] | 0.016 | 34.3 | – | –
